Paper PMC11974712 (bioRxiv, 2025)

Molecular target: Human Fatty Acid Binding Protein (FABP4) (Homo sapiens, UniProt P15090)
Experiment: Binding inhibition assay: displacement of the fluorescent probe ANS from FABP4
Settings: for binding to FABP4 (in words): ANS displacement

Chain of Human Fatty Acid Binding Protein (FABP4) (P15090 whole entry): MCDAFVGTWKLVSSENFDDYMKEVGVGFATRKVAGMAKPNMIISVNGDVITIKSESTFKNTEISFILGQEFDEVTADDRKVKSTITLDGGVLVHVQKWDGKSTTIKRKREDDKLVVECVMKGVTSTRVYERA

SMILES	binding to FABP4 (in words)	Kd [µM]	fold increase in affinity relative to hydrogenated analog heptanoic acid (ratio of Kd values)
CCCC(=O)O [Butanoic Acid]	no detectable binding		
CCCCCCC(=O)O [Heptanoic Acid]		145 ± 3.1	
CCCCCC(=O)O [Hexanoic Acid]	no detectable binding		
O=C(O)C(F)(F)C(F)(F)C(F)(F)C(F)(F)C(F)(F)C(F)(F)C(F)(F)C(F)(F)C(F)(F)C(F)(F)C(F)(F)F [PFDoA, Perfluorododecanoic Acid]		< 1	
O=C(O)C(F)(F)C(F)(F)C(F)(F)C(F)(F)C(F)(F)C(F)(F)F [PFHpA, Perfluoroheptanoic Acid]		4.46 ± 0.17	approximately 30 fold
CCCCC(=O)O [Pentanoic Acid]	no detectable binding		
